In general, IC50 refers to the concentration at which inhibition is half-maximal.

Here are results for 26 compounds from patent US12065443B2, “Compounds and pharmaceutical compositions thereof for the treatment of diseases” (priority 2017, dated 2024).

Some results are limits rather than exact numbers.

What all share (test): biochemical
The target of assay [1] is T1, SIK2 (Homo sapiens, UniProt Q9H0K1).
T1 construct: purchased ThermoFisher Scientific PV4792
As to conditions: 33P radioactive SIK kinase assay, AMARA peptide, 10 μM ATP. The procedure: (§1) The principle of the ^33P radioactive kinase assay consists in measuring the incorporated ^33P into the substrate AMARA peptide when phosphorylated by SIK1, SIK2 or SIK3 using [^33P]-g-ATP, which correlates with kinase activity.
(§2) 1% DMSO and 10 μM staurosporine final concentrations are used as negative and positive controls.
(§3) 11 μL of enzyme-substrate mixture is added on the assay plates. The reactions are started by adding 9 μL ATP mixture, consisting of non-labeled and ^33P-labeled ATP, on the assay plates.
(§4) The reactions are stopped by adding 25 μL phosphoric acid (150 mM) to the reactions.
(§5) After harvesting the kinase reactions, the filter plates are washed 6 times with phosphoric acid (75 mM). […] The top of the plates are sealed with TopSeal-A. Read-out is performed with a TopCount instrument (PerkinElmer Inc.).

The target in assay [2] is T2, SIK1 (Homo sapiens, UniProt P57059).
T2 construct: purchased Carna Biosciences 02-131
T2 sequence (P57059 whole entry): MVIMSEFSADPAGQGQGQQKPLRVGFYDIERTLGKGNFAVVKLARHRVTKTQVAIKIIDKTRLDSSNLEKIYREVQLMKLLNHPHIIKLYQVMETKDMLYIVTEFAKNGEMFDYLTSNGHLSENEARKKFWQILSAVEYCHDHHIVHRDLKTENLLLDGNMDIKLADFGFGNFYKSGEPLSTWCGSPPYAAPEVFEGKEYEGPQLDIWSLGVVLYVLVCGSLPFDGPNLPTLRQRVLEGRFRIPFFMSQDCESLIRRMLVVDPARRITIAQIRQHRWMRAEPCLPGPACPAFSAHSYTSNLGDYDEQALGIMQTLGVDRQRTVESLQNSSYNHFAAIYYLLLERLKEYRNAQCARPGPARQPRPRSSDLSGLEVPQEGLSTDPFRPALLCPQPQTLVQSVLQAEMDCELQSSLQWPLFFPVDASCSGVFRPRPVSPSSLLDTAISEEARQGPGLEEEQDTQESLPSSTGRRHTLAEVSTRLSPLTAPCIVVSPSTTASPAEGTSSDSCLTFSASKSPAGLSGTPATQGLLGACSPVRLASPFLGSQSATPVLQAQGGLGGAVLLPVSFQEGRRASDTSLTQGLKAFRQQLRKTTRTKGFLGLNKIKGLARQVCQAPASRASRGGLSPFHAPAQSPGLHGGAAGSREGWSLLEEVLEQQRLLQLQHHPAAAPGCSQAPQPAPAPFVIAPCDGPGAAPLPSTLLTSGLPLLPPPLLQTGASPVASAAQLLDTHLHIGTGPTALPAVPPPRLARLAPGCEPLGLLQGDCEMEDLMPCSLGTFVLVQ
The conditions noted are these: 33P radioactive SIK kinase assay, AMARA peptide, 10 μM ATP; read-out: SIK1 IC50. The procedure:
as §1, §2, §3, §4, §5

Assay [3] deals with T3, SIK3 (Homo sapiens, UniProt Q9Y2K2).
T3 construct: purchased SignalChem S12-11G-100
T3 sequence (Q9Y2K2 whole entry): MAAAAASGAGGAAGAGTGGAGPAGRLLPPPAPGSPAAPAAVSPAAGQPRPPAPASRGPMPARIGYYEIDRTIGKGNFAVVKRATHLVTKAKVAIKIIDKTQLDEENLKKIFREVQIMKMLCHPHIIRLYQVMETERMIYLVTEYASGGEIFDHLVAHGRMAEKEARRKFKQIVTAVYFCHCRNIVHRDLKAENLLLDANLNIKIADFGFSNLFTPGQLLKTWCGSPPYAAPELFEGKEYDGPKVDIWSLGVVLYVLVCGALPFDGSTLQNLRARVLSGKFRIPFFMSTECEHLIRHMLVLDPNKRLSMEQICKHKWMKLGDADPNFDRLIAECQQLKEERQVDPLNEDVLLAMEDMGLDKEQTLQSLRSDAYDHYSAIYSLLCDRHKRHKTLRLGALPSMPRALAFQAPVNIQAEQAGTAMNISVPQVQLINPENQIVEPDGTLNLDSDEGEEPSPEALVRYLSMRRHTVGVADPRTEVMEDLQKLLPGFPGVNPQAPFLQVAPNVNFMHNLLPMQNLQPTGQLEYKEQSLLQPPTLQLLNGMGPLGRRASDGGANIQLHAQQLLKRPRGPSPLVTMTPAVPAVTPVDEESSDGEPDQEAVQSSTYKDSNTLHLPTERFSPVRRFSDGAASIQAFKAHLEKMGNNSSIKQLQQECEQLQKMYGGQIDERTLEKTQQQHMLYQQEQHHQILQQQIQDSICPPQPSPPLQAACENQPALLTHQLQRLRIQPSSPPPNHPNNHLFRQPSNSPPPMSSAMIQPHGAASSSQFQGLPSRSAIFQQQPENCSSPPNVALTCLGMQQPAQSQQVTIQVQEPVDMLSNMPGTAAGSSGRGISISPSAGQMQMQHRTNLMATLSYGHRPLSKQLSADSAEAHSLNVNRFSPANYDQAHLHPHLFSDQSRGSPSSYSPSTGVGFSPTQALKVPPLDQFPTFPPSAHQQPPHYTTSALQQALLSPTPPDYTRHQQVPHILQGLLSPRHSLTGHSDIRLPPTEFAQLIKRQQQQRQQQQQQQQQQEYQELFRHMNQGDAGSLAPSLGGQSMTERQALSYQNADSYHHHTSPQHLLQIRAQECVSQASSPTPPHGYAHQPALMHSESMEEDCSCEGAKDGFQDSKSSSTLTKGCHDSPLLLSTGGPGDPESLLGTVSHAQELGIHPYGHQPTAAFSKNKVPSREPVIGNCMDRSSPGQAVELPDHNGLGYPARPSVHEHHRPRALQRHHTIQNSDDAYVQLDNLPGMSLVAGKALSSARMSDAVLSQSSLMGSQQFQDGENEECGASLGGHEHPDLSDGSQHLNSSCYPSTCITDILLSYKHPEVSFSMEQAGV
The procedure:
as §1, §2, §3, §4, §5

T1 sequence (Q9H0K1 whole entry): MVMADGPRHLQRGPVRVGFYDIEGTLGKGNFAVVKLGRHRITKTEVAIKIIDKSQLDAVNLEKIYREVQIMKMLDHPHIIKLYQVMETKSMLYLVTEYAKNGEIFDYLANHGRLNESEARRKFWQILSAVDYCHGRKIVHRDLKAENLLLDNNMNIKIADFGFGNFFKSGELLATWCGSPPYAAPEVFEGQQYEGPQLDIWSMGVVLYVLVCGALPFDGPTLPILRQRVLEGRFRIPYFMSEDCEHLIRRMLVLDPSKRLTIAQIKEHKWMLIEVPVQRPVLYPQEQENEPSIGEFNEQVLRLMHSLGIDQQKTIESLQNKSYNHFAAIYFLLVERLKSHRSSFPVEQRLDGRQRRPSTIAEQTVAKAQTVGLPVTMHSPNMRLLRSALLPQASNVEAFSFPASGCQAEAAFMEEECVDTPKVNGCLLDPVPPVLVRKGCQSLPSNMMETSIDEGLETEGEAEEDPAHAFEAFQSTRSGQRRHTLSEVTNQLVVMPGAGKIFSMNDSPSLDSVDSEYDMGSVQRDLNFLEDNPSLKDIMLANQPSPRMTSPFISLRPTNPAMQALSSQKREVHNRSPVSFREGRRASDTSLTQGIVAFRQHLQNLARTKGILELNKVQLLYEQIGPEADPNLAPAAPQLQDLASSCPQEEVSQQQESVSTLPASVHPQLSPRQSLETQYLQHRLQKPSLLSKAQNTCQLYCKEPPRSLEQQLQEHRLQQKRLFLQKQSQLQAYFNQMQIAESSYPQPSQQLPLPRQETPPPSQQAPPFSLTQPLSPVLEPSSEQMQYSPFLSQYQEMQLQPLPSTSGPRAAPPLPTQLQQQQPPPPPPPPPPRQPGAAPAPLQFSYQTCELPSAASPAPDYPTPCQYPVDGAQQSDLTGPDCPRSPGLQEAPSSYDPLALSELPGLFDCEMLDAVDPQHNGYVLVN

On to `COc1cc(-n2cnc3cc(-c4cnn(C)c4)ccc32)cc(OC)c1C(=O)Nc1ccnn1C` [compound 73, 2,6-dimethoxy-N-(2-methylpyrazol-3-yl)-4-[5-(1-methylpyrazol-4-yl)benzimidazol-1-yl]benzamide], for which the IC50 is 100 to 500 nM in assay [1], more than 500 nM in assay [2] and 100 to 500 nM in assay [3].

Regarding `COc1cc(-n2cnc3cc(-c4cnn(C)c4)ccc32)cc(OC)c1C(=O)Nc1cnc(C)cn1` [Cpd 70, 2,6-dimcthoxy-N-(5-methylpyrazin-2-yl)-4-[5-(1-methylpyrazol-4-yl)benzimidazol-1-yl]benzamide], the IC50 in assay [1] is 10 to 100 nM; in assay [2], 100 to 500 nM; in assay [3], 100 to 500 nM.

As for `COc1cc(-n2cnc3cc(-c4cnn(C)c4)ccc32)cc(OC)c1C(=O)NC(C)C#N` (stereo not drawn) [compound 87, N-(1-cyanoethyl)-2,6-dimethoxy-4-[5-(1-methylpyrazol-4-yl)benzimidazol-1-yl]benzamide], the half-maximal inhibitory concentration (IC50) in assay [1], in assay [2] and in assay [3] was 10 to 100 nM throughout.

Turning to `COc1cc(-n2cnc3cc(-c4cnn(C)c4)ccc32)cc(OC)c1C(=O)N1C(C)CC1C` (stereo not drawn) [compound 181, [2,6-dimethoxy-4-[5-(1-methylpyrazol-4-yl)benzimidazol-1-yl]phenyl]-(2,4-dimethylazetidin-1-yl)methanone], the IC50 in assay [1], in assay [2] and in assay [3] was more than 500 nM each time.

As for `COc1cc(-n2cnc3cc(-c4nnc(C)n4C)ccc32)cc(OC)c1C(=O)NCC(F)(F)F` [Cpd 168, 4-[5-(4,5-dimethyl-1,2,4-triazol-3-yl)benzimidazol-1-yl]-2,6-dimethoxy-N-(2,2,2-trifluoroethyl)benzamide], the IC50 in assay [1], in assay [2] and in assay [3] was more than 500 nM in each case.

As for `COc1cncc(-c2ccc3c(c2)ncn3-c2cc(OC)c(C(=O)NCC(F)(F)F)c(OC)c2)c1` [compound 35, 2,6-dimethoxy-4-[5-(5-methoxy-3-pyridyl)benzimidazol-1-yl]-N-(2,2,2-trifluoroethyl)benzamide], the IC50 fell in the range of 100 to 500 nM in assay [1], 100 to 500 nM in assay [2] and 10 to 100 nM in assay [3].

With `COc1cc(-n2cnc3cc(-c4cnn(C)c4)ccc32)cc(OC)c1C(=O)NCCS(C)(=O)=O` [compound 65, 2,6-dimethoxy-4-[5-(1-methylpyrazol-4-yl)benzimidazol-1-yl)-N-(2-methylsulfonylethyl)benzamide], the figures for the IC50 in assay [1], in assay [2] and in assay [3] were 10 to 100 nM, 100 to 500 nM and 10 to 100 nM, respectively.

As to `COc1cc(-n2cnc3cc(-c4cnn(CC5CCCO5)c4)ccc32)cc(OC)c1C(=O)NCC(F)(F)F` (stereo not drawn) [compound 111, 2,6-dimethoxy-4-[5-[1-(tetrahydrofuran-2-ylmethyl)pyrazol-4-yl]benzimidazol-1-yl]-N-(2,2,2-trifluoroethyl)benzamide], the IC50 in assay [1], in assay [2] and in assay [3] was 0.01 to 10 nM each time.

For `COc1cc(-n2cnc3cc(-c4cnn(C)c4)ccc32)cc(OC)c1C(=O)N1CCC(OC(F)(F)F)CC1` [compound 198, [2,6-dimethoxy-4-[5-(1-methylpyrazol-4-yl)benzimidazol-1-yl]phenyl]-[4-(trifluoromethoxy)-1-piperidyl]methanone], the results for the IC50 in assay [1], in assay [2] and in assay [3] were more than 500 nM, 100 to 500 nM and 100 to 500 nM, respectively.

Turning to `COc1cc(-n2cnc3cc(-c4cccnc4)ccc32)cc(OC)c1C(=O)NCC(F)(F)F` [compound 39, 2,6-dimethoxy-4-[5-(3-pyridyl)benzimidazol-1-yl]-N-(2,2,2-trifluoroethyl)benzamide], the IC50 in assay [1] was in the range of 10 to 100 nM; in assay [2] it was 100 to 500 nM; in assay [3], 10 to 100 nM.

Take `COc1cc(-c2cnc3cc(-c4cc(C)no4)ccn23)cc(OC)c1C(=O)N[C@@H](C)C(F)(F)F` [compound 224, 2,6-dimethoxy-4-[7-(3-methylisoxazol-5-yl)imidazo[1,2-a]pyridin-3-yl]-N-[(1S)-2,2,2-trifluoro-1-methyl-ethyl]benzamide]: the IC50 in assay [1], in assay [2] and in assay [3] was 100 to 500 nM in each case.

With `CCNC(=O)c1c(OC)cc(-n2cnc3cc(-c4cn(C)nc4C)ccc32)cc1OC` [compound 8, 4-[5-(1,3-dimethylpyrazol-4-yl)benzimidazol-1-yl]-N-ethyl-2,6-dimethoxy-benzamide], the IC50 in assay [1] was 10 to 100 nM; in assay [2], 100 to 500 nM; in assay [3], 100 to 500 nM.

As to `COc1cc(-n2cnc3cc(-c4cnn(C)c4)ccc32)cc(OC)c1C(=O)N[C@@H]1CCC[C@H]1O` [compound 143, N-[(1R,2R)-2-hydroxycyclopentyl]-2,6-dimethoxy-4-[5-(1-methylpyrazol-4-yl)benzimidazol-1-yl]benzamide], the results for the IC50 in assay [1], in assay [2] and in assay [3] were 10 to 100 nM, 100 to 500 nM and 10 to 100 nM, respectively.

Consider `COc1cc(-n2cnc3cc(-c4conc4C)ccc32)cc(OC)c1C(=O)NCC(F)(F)F` [compound 108, 2,6-dimethoxy-4-[5-(3-methylisoxazol-4-yl)benzimidazol-1-yl]-N-(2,2,2-trifluoroethyl)benzamide], for which the IC50 in assay [1], in assay [2] and in assay [3] was 100 to 500 nM each time.

With `COc1ncc(-c2ccc3c(c2)ncn3-c2cc(OC)c(C(=O)NCC(F)(F)F)c(OC)c2)cn1` [compound 105, 2,6-dimethoxy-4-[5-(2-methoxypyrimidin-5-yl)benzimidazol-1-yl]-N-(2,2,2-trifluoroethyl)benzamide], the IC50 in assay [1] was more than 500 nM; in assay [2], more than 500 nM; in assay [3], 100 to 500 nM.

For the compound `COc1cc(-n2cnc3cc(-c4cnn(C)c4)ccc32)cc(OC)c1C(=O)N1CCC1C` (stereo not drawn) [compound 182, [2,6-dimethoxy-4-[5-(1-methylpyrazol-4-yl)benzimidazol-1-yl]phenyl]-(2-methylazetidin-1-yl)methanone], the IC50 in assay [1], in assay [2] and in assay [3] was more than 500 nM in each case.

With `COc1cc(-n2cnc3cc(-c4cnn(C)c4)ccc32)cc(OC)c1C(=O)NCc1nccn1C` [compound 71, 2,6-dimethoxy-N-[(1-methylimidazol-2-yl)methyl]-4-[5-(1-methylpyrazol-4-yl)benzimidazol-1-yl]benzamide], the IC50 is 10 to 100 nM in assay [1], 100 to 500 nM in assay [2] and 100 to 500 nM in assay [3].

Take `COc1cc(-n2cnc3cc(-c4cnn(C)c4)ccc32)cc(OC)c1C(=O)N1C(C)CC1(C)C` (stereo not drawn) [compound 189, [2,6-dimethoxy-4-[5-(1-methylpyrazol-4-yl)benzimidazol-1-yl]phenyl]-(2,2,4-trimethylazetidin-1-yl)methanone]: the IC50 in assay [1], in assay [2] and in assay [3] was more than 500 nM throughout.

Regarding `CCC(C)NC(=O)c1c(OC)cc(-n2cnc3cc(-c4cnn(C)c4)ccc32)cc1OC` (stereo not drawn) [compound 114, 2,6-dimethoxy-4-[5-(1-methylpyrazol-4-yl)benzimidazol-1-yl]-N-sec-butyl-benzamide], the half-inhibitory concentration (IC50) in assay [1], in assay [2] and in assay [3] was 100 to 500 nM in each case.

As for `COc1cc(-n2cnc3cc(-c4nc(C)no4)ccc32)cc(OC)c1C(=O)NCC(F)(F)F` [Cpd 169, 2,6-dimethoxy-4-[5-(3-methyl-1,2,4-oxadiazol-5-yl)benzimidazol-1-yl]-N-(2,2,2-trifluoroethyl)benzamide], the 50% inhibitory concentration (IC50) in assay [1], in assay [2] and in assay [3] was more than 500 nM throughout.

For the compound `COCCCNC(=O)c1c(OC)cc(-n2cnc3cc(-c4cnn(C)c4)ccc32)cc1OC` [compound 60], the IC50 in assay [1] fell in the range of 10 to 100 nM; in assay [2] it was 10 to 100 nM; in assay [3], 100 to 500 nM.

Regarding `COc1cc(-n2cnc3cc(-c4cnn(C)c4)ccc32)cc(OC)c1C(=O)N1CC2(COC2)C1` [compound 194], the IC50 in assay [1] lay in the range of 10 to 100 nM; in assay [2], 100 to 500 nM; in assay [3], 100 to 500 nM.

In the case of `COc1cc(-n2cnc3cc(-c4cnn(C)c4)ccc32)cc(OC)c1C(=O)Nc1ccon1` [compound 72, N-isoxazol-3-yl-2,6-dimethoxy-4-[5-(1-methylpyrazol-4-yl)benzimidazol-1-yl]benzamide], the IC50 in assay [1], in assay [2] and in assay [3] was 10 to 100 nM each time.

Turning to `COc1cc(-n2cnc3cc(-c4cnn(C)c4)ccc32)cc(OC)c1C(=O)NCCCO` [compound 63, N-(3-hydroxypropyl)-2,6-dimethoxy-4-[5-(1-methylpyrazol-4-yl)benzimidazol-1-yl]benzamide], the results for the IC50 in assay [1], in assay [2] and in assay [3] were 10 to 100 nM, 100 to 500 nM and 10 to 100 nM, respectively.

Turning to `CCn1cc(-c2ccc3c(c2)ncn3-c2cc(OC)c(C(=O)N(C)CC#N)c(OC)c2)cn1` [compound 31, N-(cyanomethyl)-4-[5-(1-ethylpyrazol-4-yl)benzimidazol-1-yl]-2,6-dimethoxy-N-methyl-benzamide], the IC50 is 100 to 500 nM in assay [1], 100 to 500 nM in assay [2] and 10 to 100 nM in assay [3].

`COc1cc(-c2cnc3cc(-c4cn(C)nc4C(F)(F)F)ccn23)cc(OC)c1C(=O)NCC(F)(F)F` [compound 249, 2,6-dimethoxy-4-[7-[1-methyl-3-(trifluoromethyl)pyrazol-4-yl]imidazo[1,2-a]pyridin-3-yl]-N-(2,2,2-trifluoroethyl)benzamide]: the figures for the IC50 in assay [1], in assay [2] and in assay [3] were 10 to 100 nM, 100 to 500 nM and 10 to 100 nM, respectively.
